We go through two molecules from patent US20200270310A1, “MAFG AS A POTENTIAL THERAPEUTIC TARGET TO RESTORE CHEMOSENSITIVITY IN PLATINUM-RESISTANT CANCER CELLS” (FUNDACÓIN PARA LA INVESTIGACIÓN BIOMÉDICA DEL HOSPITAL …, priority 2017, published 2020).

Holding throughout (type): cell-based, human
One data set deals with H23S cells. The experiment in a line: ROS production after CDDP exposure, sensitive cells. The protocol:
(§1) FIG. 2. Viability assays and Reactive Oxygenated Species detection after CDDP treatment in H23 cell lines. (A) Viability to CDDP in H23S (left) and H23R (right) at 24, 48 and 72 hours and 6 concentrations of CDDP measured by MTT assay. (B) Increment of ROS production in H23S (left) and H23R (right) after 24, 48 and 72 hours of CDDP treatment. $: 72h (vs Basal).
(§2) H23/A2780 cells were cultured in 96-well black plates at density of 10,000 cells/well. Cells were treated with 6 different doses of CDDP for 24, 48 and 72 h in RPMI containing 10% FBS. Then treatments were removed and cells were loaded with the fluorescent probe 2′,7′-dichlorodihydrofluorescein diacetate (H2DCFDA) (10 μM) for 45 minutes in RPMI medium (FBS free). Cells were washed twice with RPMI (10% FBS), and fluorescence was recorded in a Fluostar Optima, each hour, over 4 hours period. […] ROS production was calculated dividing the mean H2DCFDA fluorescence by the mean viability. […] All experiments included cells treated with RPMI alone (Basal), and one well without cells as fluorescence basal.
(§3) H23/A2780 cells were cultured in 96-well black plates at density of 10,000 cells/well. […] Cells were washed twice with RPMI (10% FBS), and fluorescence was recorded in a Fluostar Optima at 520 nm after excitation at 485 nm. […] ROS production was calculated dividing the mean H2DCFDA fluorescence by the mean viability. […]

Data set [1] deals with H23R cells. The data set is described as follows: ROS production after CDDP exposure, resistant cells. How it is done: as §1, §2, §3
For another data set, the system named is A2780-R cells. The data set is described as follows: Viability to CDDP, resistant index. The conditions noted are these: versus parental A2780. The text has this:
(§4) Fifteen human cancer cell lines were purchased from ATCC (Manassas, Va.) or ECACC (Sigma-Aldrich, Spain) and cultured as recommended. The CDDP-resistant variants A2780R and OVCAR3R were selected after a final exposure to […] cisplatin, respectively (Farma Ferrer, Spain), as previously described for H23R and H460R variants The additional 11 human cell lines, PC-3, LNCAP, H727, HT29, A549, BT474, LoVo, IMIM-PC-2, SKOV3, SW780 and IMR90, were used for further validations. For viability assays cells were treated with increasing doses of CDDP. The epigenetic reactivation drugs 5Aza-2deoxycytidine (5Aza-dC) and trichostatin A (TSA) (Sigma-Aldrich, Spain) were used at […] and at 300nM respectively.

In data set [2] the test system is H23R cells. The data set is described as follows: Viability to CDDP, resistant index. The conditions noted are these: versus H23S.
Description: as §4

The subject of a further data set is H460R cells. The experiment in a line: Viability to CDDP, resistant index. The conditions noted are these: versus parental H460.
Description: as §4

In a further data set the test system is OVCAR3-R cells. The data set is described as follows: Viability to CDDP, resistant index. As to conditions: versus parental OVCAR3.
Description: as §4

In data set [3] the test system is H23R cells. The data set is described as follows: ROS production and viability after aptamer transfection and CDDP treatment. How it is done:
FIG. 7: Viability and ROS production assay in H23R cells after apMAFG6F transfection. Each experimental group was exposed for 72 h to 6 different CDDP concentrations, and data were normalized to each untreated control, set to 100%. The data represent the mean±SD of at least 2 independent experiments performed in duplicate at each drug concentration for each cell line analyzed.
as §2, §3

Data set [4] relates to H23R cells. The experiment in a line: Semiquantitative RT-PCR of MAFG and HMOX1 in aptamer-transfected cells after platinum treatment. The conditions noted are these: aptamer-transfected H23R after platinum treatment vs H23R. How it is done:
For semiquantitative RT-PCR, 500 ng of total RNA isolated from cell lines was used for RT reaction using PrimeScript™ RT Master (Clontech-Takara, USA) and subsequent semiquantitative PCR using Promega PCR Mix (Promega, USA) as previously described. Relative quantification was performed by measuring the intensity of band amplified using ImageJ software. Primers for HMOX1 (F: 5′-[…]-3′; R: 5′-[…]-3′), MAFG (F: 5′-[…]-3′; R: 5′-[…]-3′) and GAPDH (F: 5′-GAGAGACCCTCACTGCTG-3′; R: 5′-[…]-3′) were designed to include the probe from the array in order to assure the correct transcript identification.

Several values for one entry are separate records, joined by “and”; a condition that tells them apart may be missing. Equal entries are not always repeated. Entries after “also recorded” stand apart in the source; their conditions may differ.

With `[NH2][Pt]([NH2])([Cl])[Cl]` [CDDP, Cisplatin], the “ROS production versus basal untreated cells” value with H23S cells (3.00 μg/ml CDDP) is given as 300%; in the data set with H23R cells [1] (3.00 μg/ml CDDP), 159%. For the same molecule, the entries for the “ROS after treatment with the drug” value in the data set on H23S cells (Example 1) and in the data set on H23R cells [1] (Example 1) were “increased” and “no changes”, respectively. The “Resistant-Index (RI) to CDDP” value was 3.00 with A2780-R cells; 3.35 and > 3 in the data set on H23R cells [2]; 2.50 with H460R cells; 2.96 in the data set with OVCAR3-R cells.

B1: GCGGATGAAGACTGGTGTCGATGCATGTGTAGTGCATTTCGAGCCGTTCTATTGGTGTGCCCTAAATACGAGCAAC (nucleic acid)
chain: GCGGATGAAGACTGGTGTCGATGCATGTGTAGTGCATTTCGAGCCGTTCTATTGGTGTGCCCTAAATACGAGCAAC
modifications: chemistry not given here
notes: DNA aptamer selected against the MAFG protein by SELEX
Turning to B1, the “cell viability after aptamer transfection and CDDP” value in the data set on H23R cells [3] (measured in parallel to ROS) is “decrease of cell viability; also recorded: decrease in cell viability”. In the data set with H23R cells [3] (resistant cells carrying aptamer vs untransfected, p<0.005 at 4 μg/ml CDDP), the “ROS production after aptamer transfection and CDDP” value is recorded as “increase of ROS production; also recorded: linear dose-response relationship”. In addition, in the data set on H23R cells [4], the HMOX1 expression entry was “decrease in their expression” and the MAFG expression result was “decrease in their expression”.
